Laboratory results published in paper PMC11984407, “A natural small molecule isoginkgetin alleviates hypercholesterolemia and atherosclerosis by targeting ACLY” (Theranostics, 2025).

Tested on: Ldlr-/- hamsters
Assay: High cholesterol diet-fed Ldlr-/- hamsters
Assay type: in vivo, hamster
Protocol: Syrian golden hamsters with a deficiency in the low-density lipoprotein receptor (Ldlr) gene were generated using the clustered regularly interspaced short palindromic repeats (CRISPR) and CRISPR-associated protein 9 (Cas9) gene editing system, as previously described. Male Ldlr^-/- hamsters at 8-week-old were randomly divided into three groups. The animals were administered with vehicle, ISOGK (2 mg/kg/day), or ISOGK (5 mg/kg/day) for a period of four weeks. The hamsters were maintained on a 14-h light/10-h dark cycle at 24 °C and were fed a 1.25% high cholesterol diet. Unless otherwise stated, the hamsters were fasted for 12 h prior to euthanasia. All experiments were conducted in accordance with the principles of experimental animal care (NIH publication no. 85-23, revised 1996) and were approved by the Animal Care and Use Committee of Peking University (approval number LA2022-147).
Plasma levels of TC, TG, LDL-C, and high-density lipoprotein cholesterol (HDL-C) were determined following the manufacturer's instructions. Liver tissues (30-40 mg) were homogenized in 0.5 mL of cold PBS for hepatic TG and cholesterol measurement. A 0.4 mL homogenate was combined with 1.4 mL of a CHCl3/CH3OH mixture (2:1, v/v) and shaken overnight at room temperature. Following centrifugation at 2,500 × g for a period of 10 min, the organic phase was meticulously transferred and permitted to air-dry. The residual organic material was then reconstituted in 800 μL of ethanol containing 1% Triton X-100, whereby the ethanol served to solubilize the material.

## COc1ccc(-c2cc(=O)c3c(O)cc(O)c(-c4cc(-c5cc(=O)c6c(O)cc(O)cc6o5)ccc4OC)c3o2)cc1 [ISOGK, Isoginkgetin]
  lipid accumulation in aortic sinus (Oil Red O): significantly reduced lipid accumulation
  lipid accumulation in liver tissues (Nile Red): significantly reduced lipid accumulation
2 mg/kg/day i.p.
  reduction in hepatic TC vs vehicle: 25.89%
5 mg/kg/day i.p.
  reduction in hepatic TC vs vehicle: 35.75%
High dose 5 mg/kg/day
  decrease in serum TG levels (Figure 5B): 61.32%
  decrease in serum non-HDL-C: 51.76%
  reduction in serum TC (Figure 5C): 52.15%
  reduction in serum TG (Figure 5C): 51.38%
high-dose 5 mg/kg/day
  reduction of aortic plaque area (Oil Red O) vs vehicle: 29.85%
Low and high doses
  serum HDL-C levels: without affecting HDL-C levels
Low dose 2 mg/kg/day
  decrease in serum TG levels (Figure 5B): 47.57%
  decrease in serum non-HDL-C: 28.16%
  reduction in serum TC (Figure 5C): 28.72%
  reduction in serum TG (Figure 5C): 47.99%
low-dose 2 mg/kg/day
  reduction of aortic plaque area (Oil Red O) vs vehicle: 21.74%
